Test results as given in patent US7608622B2, “Imidazo[4,5-b]pyrazinone inhibitors of protein kinases” (Janssen Pharmaceutica NV, priority 2004, dated 2009).

These molecules were tested against T1, Aurora-2 (Homo sapiens, UniProt O14965) (assay: Aurora-2 Enzymatic Assay (ELISA-based)). Settings: phosphorylated Aurora-2 (residues 125-391), Histone H3 Ser-10 phosphorylation, averages of three independent measurements; read-out: Aurora-2 IC50 Enzyme.
T1 construct: autophosphorylation of Aurora-2 (residues 125-391)
T1 sequence (O14965 125-391): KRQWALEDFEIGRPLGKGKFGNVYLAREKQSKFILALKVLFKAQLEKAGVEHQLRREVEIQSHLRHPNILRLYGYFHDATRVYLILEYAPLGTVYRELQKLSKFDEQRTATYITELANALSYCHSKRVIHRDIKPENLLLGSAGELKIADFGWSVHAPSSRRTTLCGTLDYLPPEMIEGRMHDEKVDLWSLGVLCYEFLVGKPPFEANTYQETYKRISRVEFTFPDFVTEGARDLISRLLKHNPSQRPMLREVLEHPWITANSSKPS
Format: biochemical
Experimental: In vitro assays were run to measure potency of Aurora-2 kinase inhibition by selected compounds of Formula I.
Aurora-2 Enzymatic Assay. An ELISA-based enzymatic assay was used to determine the compound potency for Aurora-2. In this assay, phosphorylated Aurora-2 (Pi-Aurora-2) catalyzes the ATP-dependent phosphorylation of Ser-10 of Histone H3. Pi-Aurora-2 was produced by autophosphorylation of Aurora-2 (residues 125-391) by 1 mM ATP in the presence of 10 mM MgCl2. The assay buffer used was 100 mM HEPES, pH 7.5, 1 mM DTT, 0.01% (v/v) Tween-20. Compounds were diluted in assay buffer containing 4% DMSO just prior to the assay. • Procedure. High-binding 96-well ELISA plates (Costar 9018) were coated overnight at 4° C. with 10 μg/ml human Histone H3 (Upstate) in PBS (100 μl/well). The following day, the plates were emptied and blocked with 1% BSA in PBS (150 μl/well) for 1 h at 37° C. At the end of the incubation, plates were washed 3 times with 0.01% Tween-20 in PBS (300 μl/well). 50 μl of compound were dispensed to each well followed by addition of 20 μl 10 mM MgCl2 and 20 μl 50 μM ATP (Sigma). The reaction was initiated by addition of 10 μl 30 nM Pi-Aurora-2. […] The reaction was quenched with 9 μl 50 mM EDTA and the plates were washed 5 times with 0.01% Tween-20 in PBS (300 μl/well). The phospho-histone H3 (Ser10) 6G3 monoclonal antibody (Cell Signaling) was then diluted 2,000-fold with 1% BSA in PBS, and was added to the plates (100 μl/well). Following 1 h incubation at 37° C., the plates were washed as described above. The HRP-conjugated secondary antibody (goat anti-mouse Ig(H+ L)-HRP human absorbed, Southern Biotechnology Associates, Inc.) was diluted 20,000-fold with 1% BSA in PBS and was added to the plates (100 μl/well). The plates were incubated for 1 h at 37° C. and then washed 5 times with 0.01% Tween-20 in PBS (300 μl/well). 100 μl/well TMB, SureBlue Reserve (KPL) were added. After ca. 5-6 min, each well received 100 μl 1 M HCl and the OD450 was measured with a SpectraMax Plus microplate reader (Molecular Devices). Under these conditions, absorbance values for positive and negative controls were ca. 0.1 and 1.7, respectively, and were used to define the 100% and 0% inhibition of the Aurora-2 reaction. The IC50 values reported (Table 1) are the averages of three independent measurements.

IC50 [nM]	Compound
< 500	COc1cc(-c2cnc3[nH]c(=O)n(Cc4cccs4)c3n2)cc(OC)c1OC [Compound 36, 1-Thiophen-2-ylmethyl-6-(3,4,5-trimethoxyphenyl)-1,3-dihydro-imidazo[4,5-b]pyrazin-2-one]
< 500	COc1cc(-c2cnc3[nH]c(=O)n(Cc4ccccc4Cl)c3n2)cc(OC)c1OC [Compound 37, 1-(2-Chlorobenzyl)-6-(3,4,5-trimethoxyphenyl)-1,3-dihydro-imidazo[4,5-b]pyrazin-2-one]
< 500	COc1cc(-c2cnc3[nH]c(=O)n(Cc4ccc(N)cc4)c3n2)cc(OC)c1OC [Compound 38, 1-(4-Aminobenzyl)-6-(3,4,5-trimethoxyphenyl)-1,3-dihydroimidazo[4,5-b]pyrazin-2-one]
500 to 1000	COc1cc(-c2cnc3[nH]c(=O)n(Cc4cccc(N)c4)c3n2)cc(OC)c1OC [Compound 39, 1-(3-Aminobenzyl)-6-(3,4,5-trimethoxyphenyl)-1,3-dihydro-imidazo[4,5-b]pyrazin-2-one]

The next lines start with the molecule.

Compound	IC50 [nM]
COc1cc(-c2cnc3[nH]c(=O)n(Cc4cccc5ccccc45)c3n2)cc(OC)c1OC [Compound 33, 1-Naphthalen-1-ylmethyl-6-(3,4,5-trimethoxyphenyl)-1,3-dihydro-imidazo[4,5-b]pyrazin-2-one]	> 1000
COc1cc(-c2cnc3[nH]c(=O)n(Cc4ccc5c(c4)OCO5)c3n2)cc(OC)c1OC [Compound 34, 1-Benzo[1,3]dioxol-5-ylmethyl-6-(3,4,5-trimethoxyphenyl)-1,3-dihydroimidazo[4,5-b]pyrazin-2-one]	500 to 1000
COc1cc(-c2cnc3[nH]c(=O)n(C4CCc5ccccc54)c3n2)cc(OC)c1OC (stereo not shown) [Compound 35, 1-Indan-1-yl-6-(3,4,5-trimethoxyphenyl)-1,3-dihydroimidazo[4,5-b]pyrazin-2-one]	< 500
